Ends that are not written are not given here.
Tested on: Male Wistar rats
Test: Intestinal transit of Evans blue after laparotomy and manipulation of the intestines (postoperative ileus model)
Format: in vivo, rat
Details: single peptide approx. 150 μg per kg i.v. tail vein bolus 1 minute before surgery, skin incision, 20 minute transit period, mean
Procedure: Male Wistar rats are commonly used to study the mechanisms that regulate gastrointestinal function by several laboratories across the United States and the world. This model is well characterized experimentally and has the added advantage of providing results in a short time frame, limiting the animal's distress.
Two hours prior to start of surgery, the required amount of peptide was measured to the nearest […] and placed into 0.5 ml saline. The suspension was then vortexed for 1 minute and then incubated at room temperature for one hour after. The solution was kept refrigerated until 30 minutes before the onset of surgery. The solution was allowed to warm to room temperature for 30 minutes prior to the surgery. Following this warming period, the solution was placed into a 1 cc insulin syringe for tail vein injection 1 minute prior to surgery.
Male Wistar rats (150-250 g) were fasted for 48 hours with free access to water. This fast was necessary to empty the gastrointestinal tract so that the Evans Blue introduced after the surgery could be accurately tracked. The rats were divided into groups in a randomized way. The randomized groups were then given isoflorane anesthesia, followed by clearing of the abdominal area with 10% antibacterial iodine solution and alcohol and shaving prior to surgery. Isoflorane was administered continuously (3-5%) using a vaporizer. […] Diethyl ether can also be used for anesthesia.
Thereafter, the rats received an i.v. injection (VIP receptor antagonists, PACAP receptor antagonists, or combination thereof were delivered in saline) in the tail vein of the appropriate drug or control for its group one minute before the operation. The peptides included VIP (10-28) and PACAP (6-38). The dosage amount of each peptide administered was approximately 150 μg per kg body weight. For the combination treatment a ratio of 1:1 of a PACAP receptor antagonist to VIP receptor antagonists was used, the total peptide amount being approximately 300 μg per kg body weight. The peptide dosages were consistent animal to animal throughout the study and were administered by bolus injections.
All groups underwent a laparotomy consisting of the incision of the abdominal skin, abdominal muscle layers and peritoneum. The laparatomy was followed by evisceration and manipulation of the small intestine and the caecum. In these experiments, the caecum and small intestine were gently pulled out of the abdominal cavity, unfurled like a fan and exposed on two sterile gauzes covering the abdomen of the rat. […]
Twenty minutes later, the rats were euthanized by an overdose pentobarbital (150 mg/kg i.v. tail vein) and the intestinal transit was measured from the pylorus to the most distal point of the migration of Evans blue and expressed in cm.

Substance | % of the intestinal length traversed by Evan's Blue [%] | intestinal motility: distance Evan's Blue traveled through the intestines [cm]
PACAP(6-38) (FTDSYSRYRKQMAVKKYLAAVLGKRYKQRVKNK; ends and bridges not checked; listed as Homo sapiens) [PACAP-RA] | 32 | 23
VIP(10-28) (YTRLRKQMAVKKYLNSILN; listed as Homo sapiens) [VIP-RA] | 31 | 26
